# Source: US20040146509A1, “Methods for improvement of lung function using TGF-beta inhibitors” (priority 2002, published 2004)
# System: bleomycin-induced lung fibrosis
# Assay: Lung hydroxyproline content following bleomycin-induced lung fibrosis (14 days)
# Type: in vivo, rat
# Conditions: rats, bleomycin intratracheal day 0; day 1-14: Compound B 30 mg/kg oral three times a day, Triamcinolone 8 mg/kg i.p. every other day; versus bleo+saline; FIG. 8
# Description: Male Sprague-Dawley rats weighing 225 to 250 were purchased from Charles River Laboratories, Inc. Rats were housed in groups of two in the animal facility provided with filtered air and constant temperature and humidity. All animal maintenance was in accordance with Scios' guidelines for animal welfare. The rats were allowed to acclimate to the new environment for one week before all treatment. A 12:12 hour light-dark cycle was maintained, and the animals had free access to ad libitum food and water.
# Day 0: To induce pulmonary fibrosis, rats were intubated with 0.5 ml of saline or 0.5 ml of 1.0 unit/ml of bleomycin by intratracheal injection under anesthesia. The anesthetic solution used is a mixture of 0.4 ml of ketamine (100 mg/ml) and 0.25 ml of xylazine (20 mg/ml) at a dose of 1.3 ml/kg.
# Group 2 & 3: Rats were weighed and orally dosed with 5 ml/kg of saline three times a day […]
# To estimate the total amount of collagen in fibrotic lungs, the hydroxyproline content of the whole lung was measured in each group according to the method described by Woessner Biochim Biophys Acta. […]
# Briefly, lungs were harvested and homogenized in 15 ml of 1×PBS with a Polytron homogenizer. […] The hydroxyproline content was the measured using the method of Woessner.
# The data were analyzed using a one-way analysis of variance (ANOVA) with a Bonferroni's multiple comparisons post tests. […]
smiles,measurement,value
C[C@]12C=CC(=O)C=C1CC[C@H]1[C@@H]3C[C@@H](O)[C@](O)(C(=O)CO)[C@@]3(C)C[C@H](O)[C@@]12F [Triamcinolone],lung hydroxyproline content,significantly reducing lung hydroxyproline content
